Data: article PMC11225074 (Clinical and Translational Medicine, 2024)

How the values were obtained:
His‐YBX1 = experiment: Microscale thermophoresis (MST), His-YBX1 wild type; assay type: binding; conditions: PBS (pH 7.4) with 0.05% Tween‐20, peptide 10 nM to 500 µM, NT-647-NHS labelled protein; at least three experiments
Procedure: The recombinant plasmids pGEX and pET‐28a expressing GST‐YBX1 and His‐YBX1, respectively, were transformed into E. coli BL21 to generate two recombinant strains pGEX‐GST‐YBX1 and pET‐28a‐His‐YBX1. These strains were inoculated into LB medium and cultured with ampicillin or kanamycin, and isopropylthio‐β‐D‐galactoside at 16°C overnight. Post‐culturing, the cells were collected and sonicated in PBS.
Proteins with labels were dissolved in a solution of PBS (pH 7.4) with 0.05% Tween‐20. […] After incubation, the mixture was moved to silica capillaries and thermophoresis was assessed using a NanoTemper Monolith NT.115 device from NanoTemper Technologies GmbH. Dissociation constant (Kd) values were determined using the law of mass action formula in NanoTemper Analysis 1.5.41 software. All microscale thermophoresis (MST) experiments were conducted at least three times.

[1] = tested on: Histone H3K4me1 and H3K4me3 peptides; experiment: Dot blot of antibody specificity; assay type: binding; conditions: 1:1000, 16 h at 4°C, nitrocellulose, chemiluminescence
Excerpt: Next, the membranes were washed with 1×TBST in order to eliminate any antibodies that were not bound. Following washing, the membranes were exposed to secondary antibodies that were linked to HRP.

Row | Substance | Binding of His-YBX1 to peptide (MST) (His‐YBX1) | Antibody specificity towards the corresponding modification [1]
1 | ART‐Kme0/1/3‐QTARKSTGGKAPRKQL [H3, chemically synthesized unmethylated histone H3 peptide of 20 amino acids (GenScript)] | no discernible binding affinity | 
2 | H3K4me1 antibody: anti‐H3K4me1 (1:1000; Abcam; ab176877) |  | high specificity
3 | H3K4me3 antibody: anti‐H3K4me3 (1:1000; Abcam; ab213224) |  | high specificity
